How the values were obtained:
Type in all cases: physicochemical
[1] = Bulk specific gravity (packed state)
[2] = Angle of spatula of crystals
[3] = Angle of repose of crystals
[4] = Solubility in organic solvents at 20° C.
[5] = Hygroscopicity: moisture content after exposure to 100% relative humidity (Karl Fischer method); conditions: for Hygroscopicity (Water content in % by weight): room temperature, relative humidity 100%
From the text: Consequently, the crystals can be used conveniently and advantageously with no additional treatment, such as re-drying and moisture-proof packing, even in such uses as the production of polyurethane, which is susceptible to the influence of moisture.

| Compound | Bulk Specific Gravity [1] | Angle of Spatula [2] [°] | Angle of Repose [3] [°] | Solubility at 20° C. ([4]; Cyclohexane) [g/100 g solvent] | Solubility at 20° C. ([4]; Methanol) [g/100 g solvent] | Solubility at 20° C. ([4]; Toluene) [g/100 g solvent] | Hygroscopicity (Water content in % by weight) ([5]; exposure period 0 Days) [% by weight] | Hygroscopicity (Water content in % by weight) ([5]; exposure period 1 Day) [% by weight] | Hygroscopicity (Water content in % by weight) ([5]; exposure period 50 Days) [% by weight] | Hygroscopicity (Water content in % by weight) ([5]; exposure period 100 Days) [% by weight] | solubility in organic solvents (in words) ([4]; compared with the δ-crystals and the αβ-crystals) | hygroscopicity (in words) ([5]; compared with the prior αβ- and δ-crystals) |
| --- | --- | --- | --- | --- | --- | --- | --- | --- | --- | --- | --- | --- |
| Cc1cc(CCC(=O)OCC(C)(C)C2OCC3(CO2)COC(C(C)(C)COC(=O)CCc2cc(C)c(O)c(C(C)(C)C)c2)OC3)cc(C(C)(C)C)c1O (stereo not shown) [Comparative Example 2, 3,9-bis[2-{3-(3-t-butyl-4-hydroxy-5-methylphenyl)propionyloxy}-1,1-dimethylethyl]-2,4,8,10-tetraoxaspiro[5.5]undecane, reference compound] | 0.40 | 74 | 53 |  |  |  |  |  |  |  |  |  |
| Cc1cc(CCC(=O)OCC(C)(C)C2OCC3(CO2)COC(C(C)(C)COC(=O)CCc2cc(C)c(O)c(C(C)(C)C)c2)OC3)cc(C(C)(C)C)c1O (stereo not shown) [δ-Crystal, 3,9-bis[2-{3-(3-t-butyl-4-hydroxy-5-methylphenyl)propionyloxy}-1,1-dimethylethyl]-2,4,8,10-tetraoxaspiro[5.5]undecane, reference compound] |  |  |  | 0.06 | 9 | 15 | 0.10 | 0.47 | 0.50 | 0.45 |  |  |
| Cc1cc(CCC(=O)OCC(C)(C)C2OCC3(CO2)COC(C(C)(C)COC(=O)CCc2cc(C)c(O)c(C(C)(C)C)c2)OC3)cc(C(C)(C)C)c1O (stereo not shown) [Comparative Example 1, 3,9-bis[2-{3-(3-t-butyl-4-hydroxy-5-methylphenyl)propionyloxy}-1,1-dimethylethyl]-2,4,8,10-tetraoxaspiro[5.5]undecane, reference compound] | 0.43 | 65 | 50 |  |  |  |  |  |  |  |  |  |
| Cc1cc(CCC(=O)OCC(C)(C)C2OCC3(CO2)COC(C(C)(C)COC(=O)CCc2cc(C)c(O)c(C(C)(C)C)c2)OC3)cc(C(C)(C)C)c1O (stereo not shown) [ε-Crystal, 3,9-bis[2-{3-(3-t-butyl-4-hydroxy-5-methylphenyl)propionyloxy}-1,1-dimethylethyl]-2,4,8,10-tetraoxaspiro[5.5]undecane] |  |  |  | 0.02 | 4 | 9 | 0.04 | 0.06 | 0.05 | 0.05 | lower solubility in organic solvents than the δ-crystals and the αβ-crystals | smaller in hygroscopicity than the prior αβ- and δ-crystals |
| Cc1cc(CCC(=O)OCC(C)(C)C2OCC3(CO2)COC(C(C)(C)COC(=O)CCc2cc(C)c(O)c(C(C)(C)C)c2)OC3)cc(C(C)(C)C)c1O (stereo not shown) [Example 3, 3,9-bis[2-{3-(3-t-butyl-4-hydroxy-5-methylphenyl)propionyloxy}-1,1-dimethylethyl]-2,4,8,10-tetraoxaspiro[5.5]undecane] | 0.66 | 58 | 47 |  |  |  |  |  |  |  |  |  |
| Cc1cc(CCC(=O)OCC(C)(C)C2OCC3(CO2)COC(C(C)(C)COC(=O)CCc2cc(C)c(O)c(C(C)(C)C)c2)OC3)cc(C(C)(C)C)c1O (stereo not shown) [Example 1, 3,9-bis[2-{3-(3-t-butyl-4-hydroxy-5-methylphenyl)propionyloxy}-1,1-dimethylethyl]-2,4,8,10-tetraoxaspiro[5,5]undecane] | 0.59 | 57 | 45 |  |  |  |  |  |  |  |  |  |
| Cc1cc(CCC(=O)OCC(C)(C)C2OCC3(CO2)COC(C(C)(C)COC(=O)CCc2cc(C)c(O)c(C(C)(C)C)c2)OC3)cc(C(C)(C)C)c1O (stereo not shown) [Example 2, 3,9-bis[2-{3-(3-t-butyl-4-hydroxy-5-methylphenyl)propionyloxy}-1,1-dimethylethyl]-2,4,8,10-tetraoxaspiro[5.5]undecane] | 0.60 | 58 | 45 |  |  |  |  |  |  |  |  |  |

From patent US5338869A, “Hydroxyphenylpropionic ester having novel crystal structure” (Sumitomo Chemical Company, Limited, priority 1992, dated 1994)
